US11419870B2, “Intermittent dosing of MDM2 inhibitor” (Novartis AG, priority 2014, dated 2022)

What was measured:
[1] = Pharmacokinetics of Compound A in SJSA-1 tumor-bearing rat (plasma, tumor, tissues; UPLC/MS-MS); assay type: in vivo, nude rat
Procedure: (§1) Subcutaneous tumors were induced by concentrating 1.0×10^7 SJSA-1 cells in 50% Matrigel® and injecting in the right flank of Harlan nude rats. Efficacy experiment could start 14 days post cell injection. […] The animals were treated either at a high dose (20 mg/kg i.v. or 27 mg/kg p.o.) once every 3 weeks (q3w) or at a high dose (15 mg/kg p.o.) followed 24 h later by a daily low dose treatment (3 mg/kg p.o., 2 weeks on/2 weeks off).
At the times indicated, animals were anaesthetized by exposure to 2-3% v/v isofluorane in medical oxygen: • Either the animal was killed without recovering from anesthetic after blood sampling. Blood was collected into commercially prepared EDTA coated tubes (Milian, cat #TOM-14C) in order to extract plasma. The tissues were excised, weighed and rapidly frozen in liquid nitrogen. • Or a tumor biopsy was collected by using a biopsy gun and flushing the needle with RLT buffer in Barney rubble tubes (Covaris, cat #520048). In addition, 20 μl of blood may have been collected from the tail vein and diluted in 20 μl of water. After recovery of anesthesia, animals were transferred in their respective cages.
Tissues were homogenized in an equal volume of HPLC-Water (Water for chromatography, Merck) using the Fast Prep®-24 system (M.P. Biomedicals, Irvine, Calif., USA). Following addition of 25 μl of internal standard mixture (1 μg/ml) to analytical aliquots (25 μl) of plasma or tissues homogenate the proteins were precipitated by the addition of 200 μl acetonitrile. The supernatant were transferred in a fresh vial. After evaporation to dryness the samples were re-dissolved in 60 μl acetonitrile/water (1/1 v/v). An aliquot (5 μl) of this solution was separated on a ACQUITY UPLC BEH C18 column (Waters™ 1.7 μm particle size, 2.1×50 mm) with a mobile phase consisting of a mixture of 0.1% formic acid in water (solvent A) and 0.1% formic acid in acetonitrile (solvent B). Gradient programming was used with a flow rate of 600 μl/min. After equilibration with 95% solvent A, 5 μl of sample was injected. Following a latency period of 0.25 min, the sample was eluted with a linear gradient of 5-100% solvent B over a period of 0.65 minutes followed by a 0.35 minutes hold. The column was prepared for the next sample by re-equilibrating over 0.25 minutes to the starting conditions. The column eluent was directly introduced into the ion source of the triple quadrupole mass spectrometer TQD™ (Waters Corporation, Milford, Mass., USA) controlled by Masslynx™ 4.1 software. Electrospray positive ionization (ESI+) multiple reaction monitoring was used for the MS/MS detection of the analyte. […] The limit of quantification (LOQ) for the compound was set to 0.7 ng/mL (CV and overall bias less than 30%). Regression analysis and further calculations were performed using QuanLynx™ 4.1 (Micromass) and Excel™ 2007 (Microsoft). Concentrations of unknown samples were back-calculated based on the peak area ratios of analyte/IS from a calibration curve constructed using calibration samples spiked in blank plasma or tissue obtained from animals treated with vehicle.
Areas under the plasma concentration versus time curves (AUC) were calculated from the mean values with linear trapezoidal rule, and further relevant parameters by using a non-compartmental model for extravascular dosing (WinNonlin® Professional Version 5.2, Pharsight corp., CA, US).

bone marrow = assay: Bone marrow depletion and recovery after i.v. treatment (sternum sections); assay type: in vivo, rat; conditions: i.v. 20 mg/kg
Procedure: All tissues were processed to FFPE according to routine procedures and following fixation, rat sternum was decalcified in Citrate/EDTA buffer for 5 days, with buffer exchange every 24 h. Sections were cut at 3 μm using a microtome. p21 and cleaved Caspase-3 immunohistochemistry was performed on a Ventana Discovery XT automated immunostainer using the OmniMap anti Mouse or Rabbit HRP secondary reagent and the ChromoMap DAB chromogen system (Ventana/Roche Diagnostics GmbH, Mannheim, Germany). Antigen retrieval was done by using Cell Conditioning Discovery CC1 (Ventana/Roche Diagnostics) at mild (95° 8 min+100° 20 min, for cleaved Caspase-3) or standard (95° 8 min+100° 36 min, for p21) conditions. The primary antibody was applied manually at the desired dilution in Dako antibody diluent, followed by incubation for 1 hour at room temperature. Corresponding negative controls were incubated with AbD only. Counterstaining of sections was done using hematoxylin (Ventana/Roche Diagnostics). After the automated staining run, slides were dehydrated in a graded series of ethanol, cleared in xylene and mounted with Pertex mounting medium.

SJSA-1 tumor = assay: Efficacy on SJSA-1 tumor-bearing nude rat (tumor volume); assay type: in vivo
Procedure: as §1
The tumor volume (TVol) and body-weight (BW) of the animal were measured three times per week allowing calculation at any particular time-point relative to the day of initiation of treatment (day 0) of the percentage change in TVol (Δ% TVol). Tumor response was quantified by the change in tumor volume (endpoint minus starting value in mm^3) as the T/C i.e.
[formula] In the case of a tumor regression or to assess the percentage of change in TVol, the tumor response was quantified by the percentage of regression of the starting TVol, ie

[2] = i.v. q3w 20 mg/kg, three weeks post first treatment

With COc1ncc(-c2nc3c(n2C(C)C)[C@H](c2ccc(Cl)cc2)N(c2cc(Cl)cn(C)c2=O)C3=O)c(OC)n1 [Compound A, (S)-5-(5-Chloro-1-methyl-2-oxo-1,2-dihydro-pyridin-3-yl)-6-(4-chloro-phenyl)-2-(2,4-dimethoxy-pyrimidin-5-yl)-1-isopropyl-5,6-dihydro-1H-pyrrolo[3,4-d]imidazol-4-one] the “Cmax and AUC0-24 h in blood” value ([1]; after first p.o. treatment, 20 and 27 mg/kg q3w) was “dose-dependently increased”, the “exposure in heart, jejunum, spleen, liver and bone marrow compared to plasma” value ([1]; i.v. 20 mg/kg on day 59 post first treatment) was “twice as high as in plasma” and the Tmax ([1]; nude (Harlan), rat, iv, single i.v. injection 20 mg/kg, liver) was 5 min. The Tmax ([1]; nude (Harlan), rat, iv, single i.v. injection 20 mg/kg, plasma) was 5 min, the Tmax ([1]; nude (Harlan), rat, iv, single i.v. injection 20 mg/kg, tumor) was 60 min and the Tmax ([1]; nude (Harlan), rat, single oral 27 mg/kg, all matrices (plasma, tumor and liver)) was 180 min. For the same compound, the AUC(0-t) ([1]; nude (Harlan), rat, single oral 27 mg/kg, plasma, read-out: AUC0-144 h) was 112 µM·h, the “exposure in tumor compared to plasma” value ([1]; single i.v. injection 20 mg/kg) was “two times higher” and the AUC0-144 h dn ([1]; single i.v. injection 20 mg/kg, tumor) was 16.5 nmol·h/g. The AUC0-144 h ([1]; single oral 27 mg/kg, tumor) was 277.7 nmol·h/g, the bone marrow state (bone marrow; 14 days post treatment) was “severe bone marrow depletion” and the bone marrow recovery (bone marrow; day 22) was “partial recovery”. The tumor regression (SJSA-1 tumor; i.v. q3w 20 mg/kg, after the second treatment) was 100%, the “rats with partial response (more than 50% regression)” value (SJSA-1 tumor; [2]) was 2 and the “tumor regression on average” value (SJSA-1 tumor; [2]) was 6%. The SJSA-1 tumor regression (SJSA-1 tumor; p.o. q3w 27 mg/kg, after two cycles (after the second treatment)) was 27%.
